We go through one compound from patent publication US12559718B2, “Diagnostic methods for t cell therapy” (Kite Pharma, Inc., priority 2015, dated 2026).

The data set is described as follows: Phase 1/2 trial of anti-CD19 CAR+ T cells: adverse events and dose-limiting toxicity. The format is in vivo, human. As to conditions: 1 subject, onset at day 110 post anti-CD19 CAR+ T cell infusion. As to the method: Subjects who signed informed consent and met study eligibility were enrolled into the study and underwent leukapheresis to obtain PBMCs for the production of anti-CD19 CAR+ T cells. […] Some subjects were then treated with interleukin-2 (Group 1 only), 3 hours after the anti-CD19 CAR+ T cell infusion. Retreatment of a second dose of anti-CD19 CAR+ T cells was allowed if there was a response of partial response (PR) or complete response (CR) after the first infusion and then subsequent disease progression.
Three groups of subjects were enrolled. […] These subjects also received high dose interleukin-2 (IL-2) at 720,000 IU/kg (every 8 hours until 15 doses or toxicity precluded additional doses) after the anti-CD19 CAR+ T cell administration to stimulate their proliferation.
Group 3 includes 11 subjects, who have received a reduced conditioning regimen of cyclophosphamide at 300 mg/m^2 and fludarabine at 30 mg/m^2, both given for 3 concurrent days with no IL-2.
Overall safety summaries include all 32 treated subjects.

In the case of `Nc1nc(F)nc2c1ncn2[C@@H]1O[C@H](CO)[C@@H](O)[C@@H]1O` [fludarabine], the “Neurologic adverse event considered by the investigator related to fludarabine” value is listed as “grade 4 myelitis”.
